According to ChEMBL document CHEMBL4825775, “Substituted 2,3-Benzodiazepines Derivatives as Bromodomain BRD4 Inhibitors” (ACS Med Chem Lett, 2021):

Assays:
[1] = biological target: T1, Bromodomain-containing protein 4 (Homo sapiens, UniProt O60885); assay: Inhibition of recombinant human His-tagged BRD4 BD2 using biotin-labelled histone H4 acetylated peptide as substrate by TR-FRET assay
[2] = biological target: T1, Bromodomain-containing protein 4; assay: Inhibition of recombinant human His-tagged BRD4 BD1 using biotin-labelled histone H4 acetylated peptide as substrate by TR-FRET assay

IC50 [1]	IC50 [2]	SMILES
78.4 nM	18.6 nM	CNC(=O)N1N=C(c2ccc(N3CCN(C(=O)COCCOCCOCCOCC(=O)Nc4cccc5c4C(=O)N(C4CCC(=O)NC4=O)C5=O)CC3)cc2)c2cc(OC)c(OC)cc2C[C@@H]1C (stereo partly drawn)
166 nM	19.3 nM	CNC(=O)N1N=C(c2ccc(N3CCN(C(=O)CCOCCOCCOCCNc4ccc5c(c4)C(=O)N(C4CCC(=O)NC4=O)C5=O)CC3)cc2)c2cc(OC)c(OC)cc2C[C@@H]1C (stereo partly drawn)
150 nM	14.9 nM	CNC(=O)N1N=C(c2ccc(N3CCN(C(=O)COCCOCCOCC(=O)Nc4cccc5c4C(=O)N(C4CCC(=O)NC4=O)C5=O)CC3)cc2)c2cc(OC)c(OC)cc2C[C@@H]1C (stereo partly drawn)
136 nM	24.9 nM	CNC(=O)N1N=C(c2ccc(C(=O)NCCCCNC(=O)COc3cccc4c3C(=O)N(C3CCC(=O)NC3=O)C4=O)cc2)c2cc(OC)c(OC)cc2C[C@@H]1C (stereo partly drawn)
